Target: T1, HCV polymerase (Hepatitis C virus genotype 1b, UniProt P26663)
T1 construct: 2.5 pmoles (0.15 μg) HCV polymerase protein in a final volume of 75 μL
Assay: HCV polymerase primer/template-directed transcription assay (32P-GTP incorporation, filter binding)
Type: biochemical
Details: for IC50: recombinant HCV polymerase, 30 minutes at 30° C., concentration giving 50% inhibition of polymerase-directed transcription, read-out: IC50
Description: The compounds described herein were tested for activity with HCV polymerase. Recombinant HCV polymerase was tested for its ability to perform primer/template-directed transcription in assays that contained 30 mM tris-HCl pH 7.2, 10 mM MgCl2, 20 mM NaCl, 1 mM Dithiothreitol (DTT), 0.05% Tween-20, 1% glycerol, 5 pmoles biotin-dG12 (primer), 0.5 pmoles poly(rC)300 (template), 1 μM GTP, 0.1-0.3 uCi α-^32P-GTP, and 2.5 pmoles (0.15 μg) HCV polymerase protein in a final volume of 75 μL. Reactions were initiated by addition of enzyme and incubated 30 minutes at 30° C. Reactions were stopped by addition of 33 mM EDTA, and polynucleotide products were collected by filtration through Diethylaminoethyl (DE) Filtermat papers (Wallac). Unincorporated triphosphate was removed by washing the filters with 5% dibasic sodium phosphate. The filters were counted in a Packard Tri-Lux Microbeta scintillation counter (Packard Bioscience, Meriden, Conn.). Compounds to be tested were added at various concentrations, e.g., 1 μm to 50 μm, from stocks in 10% DMSO-water (final DMSO is 1% in reaction).
IC50 values were estimated from the primary cpm data (collected in triplicate) using the formula: cpm (I)=cpm(no inhibitor)(1−([I]/([I]+IC50))). An IC50 value represents the concentration (in μM) of a compound that provides 50% inhibition of polymerase-directed transcription in the above assay. A percent inhibition value is expressed for a compound where it was impractical to calculate an IC50 value with available data. If the IC50 estimated by the above equation was less than 200 nM, it was recalculated using the following equation, which takes into account the enzyme concentration (30 nM) in the assay: cpm(I)=cpm(no inhibitor)(1−((((I+IC50+30e−9)−sqrt(((I+IC50+30e−9)^2)−4×30e−9×I)))/((2)(30e−9))). Curve fitting was performed using the program KaleidaGraph (Synergy Software, Reading, Pa.).

T1 sequence (P26663 2420-3010): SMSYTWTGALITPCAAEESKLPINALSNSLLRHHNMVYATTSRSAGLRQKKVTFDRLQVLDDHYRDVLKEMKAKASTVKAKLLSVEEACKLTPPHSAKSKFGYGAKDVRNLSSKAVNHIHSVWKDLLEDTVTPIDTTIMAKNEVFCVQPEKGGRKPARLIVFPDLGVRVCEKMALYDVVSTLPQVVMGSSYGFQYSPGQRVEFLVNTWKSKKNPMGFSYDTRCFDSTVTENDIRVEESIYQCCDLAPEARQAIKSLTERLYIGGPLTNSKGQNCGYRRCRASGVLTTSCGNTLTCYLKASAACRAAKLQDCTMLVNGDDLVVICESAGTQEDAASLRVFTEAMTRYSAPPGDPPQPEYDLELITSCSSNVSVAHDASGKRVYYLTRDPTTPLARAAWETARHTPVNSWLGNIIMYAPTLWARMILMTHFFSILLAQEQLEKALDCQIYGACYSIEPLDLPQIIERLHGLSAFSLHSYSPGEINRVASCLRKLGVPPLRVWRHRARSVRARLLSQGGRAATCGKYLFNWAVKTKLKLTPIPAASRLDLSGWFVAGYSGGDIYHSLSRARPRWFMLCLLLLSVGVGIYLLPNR

| SMILES | IC50 [nM] | inhibition at 50 µM (@ 50 uM compound, given where IC50 was impractical to calculate, read-out: percent inhibition) [%] |
| --- | --- | --- |
| COc1ccc(CCC2(C3CCCC3)CC(O)=C(Cc3nc4nc(C)cc(C)n4n3)C(=O)O2)cc1[C@@H](C)O (stereo in doubt) [B(120), 6-Cyclopentyl-3-(5,7-dimethyl-[1,2,4]triazolo[1,5-a]pyrimidin-2-ylmethyl)-4-hydroxy-6-{2-[3-(1-hydroxy-ethyl)-4-methoxy-phenyl]-ethyl}-5,6-dihydro-pyran-2-one] | 12 | – |
| CCc1cc(CCC2(C3CCCC3)CC(=O)C(Cc3nc4nc(C)cc(C)n4n3)C(=O)O2)ccc1F (stereo not drawn) [B(46), 6-cyclopentyl-3-[(5,7-dimethyl[1,2,4]triazolo[1,5-a]pyrimidin-2-yl)methyl]-6-[2-(3-ethyl-4-fluorophenyl)ethyl]dihydro-2H-pyran-2,4(3H)-dione] | 20 | – |
| CCc1cc(CCC2(C3CCCC3)CC(O)=C(Cc3nc4nc(C)cc(C)n4n3)C(=O)O2)cc(CC)c1O (stereo not drawn) [A(232), 6-cyclopentyl-6-[2-(3,5-diethyl-4-hydroxyphenyl)ethyl]-3-[(5,7-dimethyl[1,2,4]triazolo[1,5-a]pyrimidin-2-yl)methyl]-4-hydroxy-5,6-dihydro-2H-pyran-2-one] | 4 | – |
| CCOC(=O)CC(=O)N[C@H](C)c1ccc(CCC2(C3CCCC3)CC(=O)CC(=O)O2)cc1 (stereo partly drawn) [A(39), N-(1-{4-[2-(2-Cyclopentyl-4,6-dioxo-tetrahydro-pyran-2-yl)-ethyl]-phenyl}-ethyl)-malonamic acid ethyl ester] | – | 14 |
| Cc1cnc2nc(CC3=C(O)CC(CCc4ccc(C(C)(C)CO)c(F)c4)(C4CCCC4)OC3=O)nn2c1 (stereo not drawn) [A(269), 6-Cyclopentyl-6-{2-[3-fluoro-4-(2-hydroxy-1,1-dimethyl-ethyl)-phenyl]-ethyl}-4-hydroxy-3-(6-methyl-[1,2,4]triazolo[1,5-a]pyrimidin-2-ylmethyl)-5,6-dihydro-pyran-2-one] | 26 | – |
| Cc1cc(C)n2nc(CC3=C(O)CC(CCc4ccc(OC(C)C)c(F)c4)(C4CCCC4)OC3=O)nc2n1 (single isomer, unassigned) [J(3), 6-cyclopentyl-3-[(5,7-dimethyl[1,2,4]triazolo[1,5-a]pyrimidin-2-yl)methyl]-6-[2-(3-fluoro-4-isopropoxyphenyl)ethyl]-4-hydroxy-5,6-dihydro-2H-pyran-2-one] | 5 | – |
| O=C(O)COc1ccc(CCC2(C3CCCC3)CC(=O)CC(=O)O2)cc1Cl (stereo not drawn) [A(54)] | 2900 | – |
| COc1ccc(CCC2(C3CCCC3)CC(O)=C(Sc3ncnc4ccccc34)C(=O)O2)cc1Cl (stereo not drawn) [C(68), 6-[2-(3-chloro-4-methoxyphenyl)ethyl]-6-cyclopentyl-4-hydroxy-3-(quinazolin-4-ylthio)-5,6-dihydro-2H-pyran-2-one] | 200 | – |
| COc1ccc(CCC2(C3CCCC3)CC(O)=C(Cc3ccc(-n4c(C)ccc4C)cc3)C(=O)O2)cc1Cl (stereo not drawn) [B(06), 6-[2-(3-Chloro-4-methoxy-phenyl)-ethyl]-6-cyclopentyl-3-[4-(2,5-dimethyl-pyrrol-1-yl)-benzyl]-4-hydroxy-5,6-dihydro-pyran-2-one] | 150 | – |
| COc1ccc(CCC2(C3CCCC3)CC(O)=C(Sc3nc4ncccc4[nH]3)C(=O)O2)cc1Cl (stereo not drawn) [C(43), 6-[2-(3-chloro-4-methoxyphenyl)ethyl]-6-cyclopentyl-4-hydroxy-3-(1H-imidazo[4,5-b]pyridin-2-ylthio)-5,6-dihydro-2H-pyran-2-one] | 35 | – |
| COc1ccc(CCC2(C3CCCC3)CC(O)=C(Sc3nnc(C)n3C)C(=O)O2)cc1Cl (stereo not drawn) [C(99), 6-[2-(3-chloro-4-methoxyphenyl)ethyl]-6-cyclopentyl-3-[(4,5-dimethyl-4H-1,2,4-triazol-3-yl)thio]-4-hydroxy-5,6-dihydro-2H-pyran-2-one] | 79 | – |
| Cc1nc(CC2=C(O)CC(CCc3ccc(OCC4CC4)c(Cl)c3)(C3CCCC3)OC2=O)n(C)n1 (stereo not drawn) [B(70), 6-{2-[3-Chloro-4-(cyclopropylmethoxy)phenyl]ethyl}-6-cyclopentyl-3-[(1.3-dimethyl-1H-1,2,4-triazol-5-yl)methyl]-4-hydroxy-5,6-dihydro-2H-pyran-2-one] | 240 | – |
| CCC(C#N)(CC)c1ccc(CCC2(C3CCCC3)CC(O)=C(Cc3nc4ncc(Cl)cn4n3)C(=O)O2)cc1F (single isomer, unassigned; (+)) [A(266), (+)-2-(4-{2-[5-(6-Chloro-[1,2,4]triazolo[1,5-a]pyrimidin-2-ylmethyl)-2-cyclopentyl-4-hydroxy-6-oxo-3,6-dihydro-2H-pyran-2-yl]-ethyl}-2-fluoro-phenyl)-2-ethyl-butyronitrile] | 19 | – |
| Cc1cc(C)n2nc(CC3=C(O)CC(CCc4ccc(N(C)S(C)(=O)=O)c(F)c4)(C4CCCC4)OC3=O)nc2n1 (stereo not drawn) [A(131), 6-cyclopentyl-3-[(5,7-dimethyl[1,2,4]triazolo[1,5-a]pyrimidin-2-yl)methyl]-6-[2-(3-fluoro-4-{methyl[methyl(dimethylene)-I^6-sulfanyl]amino}phenyl)ethyl]-4-hydroxy-5,6-dihydro-2H-pyran-2-one] | 137 | – |
| Cc1cc(C)n2nc(CC3=C(O)CC(CCc4ccc(O)c(CC(F)(F)F)c4)(C4CCCC4)OC3=O)nc2n1 (stereo not drawn) [A(225), 6-cyclopentyl-3-[(5,7-dimethyl[1,2,4]triazolo[1,5-a]pyrimidin-2-yl)methyl]-4-hydroxy-6-{2-[4-hydroxy-3-(2,2,2-trifluoroethyl)phenyl]ethyl}-5,6-dihydro-2H-pyran-2-one] | 3 | – |
| CC(C)c1ccc(CCC2(C3CCCC3)CC(=O)CC(=O)O2)cc1Cl (stereo not drawn) [A(63), 6-[2-(3-chloro-4-isopropylphenyl)ethyl]-6-cyclopentyldihydro-2H-pyran-2,4(3H)-dione] | 11000 | – |
| COc1cc(OC)c(CCC2(C3CCCC3)CC(O)=C(Sc3nc4cc(Cl)ccc4n3C(C)C)C(=O)O2)cc1Cl (stereo not drawn) [C(73), 6-[2-(5-Chloro-2,4-dimethoxyphenyl)ethyl]-3-[(5-chloro-1-isopropyl-1H-benzimidazol-2-yl)thio]-6-cyclopentyl-4-hydroxy-5,6-dihydro-2H-pyran-2-one] | 35 | – |
| Cc1cc(C)n2nc(CC3=C(O)CC(CCc4ccc(OCC5CC5)c(Cl)c4)(C4CCCC4)OC3=O)nc2n1 (stereo not drawn) [B(28), 6-[2-(3-Chloro-4-cyclopropylmethoxy-phenyl)-ethyl]-6-cyclopentyl-3-(5,7-dimethyl-[1,2,4]triazolo[1,5-a]pyrimidin-2-ylmethyl)-4-hydroxy-5,6-dihydro-pyran-2-one] | 11 | – |
| CCc1cc(CCC2(C3CCCC3)CC(O)=C(Cc3nc4ncc(C)cn4n3)C(=O)O2)cc(F)c1O (stereo not drawn) [A(125), 6-Cyclopentyl-6-[2-(3-ethyl-5-fluoro-4-hydroxy-phenyl)-ethyl]-4-hydroxy-3-(6-methyl-[1,2,4]triazolo[1,5-a]pyrimidin-2-ylmethyl)-5,6-dihydro-pyran-2-one] | 11 | – |
| COc1ccc(CCC2(C3CCCC3)CC(O)=C(SCCc3ccccn3)C(=O)O2)cc1Cl (stereo not drawn) [C(109), 6-[2-(3-Chloro-4-methoxy-phenyl)-ethyl]-6-cyclopentyl-4-hydroxy-3-(2-pyridin-2-yl-ethylsulfanyl)-5,6-dihydro-pyran-2-one] | 900 | – |
| COc1ccc(CCC2(C3CCCC3)CC(=O)C(Cc3nccn3C)C(=O)O2)cc1Cl (stereo not drawn) [B(48), 6-[2-(3-chloro-4-methoxyphenyl)ethyl]-6-cyclopentyl-3-[(1-methyl-1H-imidazol-2-yl)methyl]dihydro-2H-pyran-2,4(3H)-dione] | 700 | – |

— patent publication US7473790B2 (Pfizer Inc., priority 2003, dated 2009)
